Measured values: PMC7881127, “Cholesterol as a modulator of cannabinoid receptor CB2 signaling” (Scientific Reports, 2021)
“Also recorded” adds a separate entry of the source.

Legend:
hCB2 [1] = target: T1, hCB2 (Homo sapiens, UniProt P34972); assay: Radioligand ([3H]CP-55,940) displacement binding in hCB2-CHO-K1 cell membranes
T1 construct: purchased PerkinElmer ES111-M400UA; host or cells: CHO-K1 cells stably transfected
Experimental: The assay was performed as described previously. […] Plasma membranes were from cultured CHO-K1 cells stably transfected with human CB2R (Perkin Elmer). Two microgram plasma membrane protein was used in a 1 mL reaction mixture. Ki values were derived by computerized curve fitting and using the Cheng-Prusoff equation to account for the affinity of the radioligand, using the GraphPad Prism 8 program (GraphPad Prism Software Inc.).

hCB2 [2] = target: T1, hCB2; assay: [35S]GTPγS binding assay in hCB2-CHO-K1 cell membranes; type: biochemical
Experimental: Figure 2 Affinity and functional effects of novel MRI ligands on CB2 receptor in CHO cell membranes. (a) binding affinities (nM) and Emax (% and nM) of [^35S]-GTPγS binding to CHO membranes (PerkinElmer, Cat. No ES111-M400UA) expressing hCB2. (b) [^35S]-GTPγS binding to membranes as a factor of ligand concentration. Binding of [^35S]-GTPγS was determined as described in “Methods”. Non-specific binding was defined as 0% activity. The assay of GTPγS non-specific binding contains non-radioactive GTPγS.
[^35S] GTPγS binding was assayed as described earlier[65] with slight modifications. Briefly, hCB2-CHO-K1 cell membranes (4 µg) were incubated with 0.05 nM [^35S] GTPγS, and the indicated concentrations of ligands in TEM buffer (50 mM Tris–HCl, 0.2 mM EGTA, and 9 mM MgCl2, pH 7.4) containing 100 µM GDP, 150 mM NaCl, and 0.1% (w/v) bovine serum albumin in a total volume of 1 ml for 60 min at 30 °C.

cannabinoid receptor CB2 = cannabinoid receptor CB2 (Homo sapiens, UniProt P34972); assay: [35S]GTP nucleotide exchange (GEF) G protein activation assay on CB2 in cell membrane preparations; type: biochemical; parameters: purchased PerkinElmer; Millipore ChemiScreen; Applied Cell Sciences; Signal Screen (Sf9); E. coli BL21 (DE3) and Expi293F membranes were made in house; ES111-M400UA; A318; 6110130; host or cells: CHO, CHO-K1, Sf9, Expi293F, Expi293F GNTI-, E. coli BL21 (DE3)
Excerpt: To better understand the reason for these discrepancies, we assessed the activation of CB2 receptor by the in vitro G protein activation assay that measures the rates of nucleotide exchange on the Gα subunit of G protein (GEF assay) as described previously[33],[34]. The assay reports the rates of formation of the complex of [^35S]-GTPγS, a homolog of GTP, with the Gα subunit of G protein. Typical assay conditions require small (nanogram) quantities of the receptor protein either in cell membranes or reconstituted into lipid bilayers. The readout of the assay is the amount of the non-hydrolysable complex of Gα with [^35S]-GTPγS which, under selected experimental conditions, is proportional to the amount of activated receptor in the assay.
Figure 3 GEF of CB2 expressed in: (a) E. coli membranes and (b) CHO membranes (Millipore EMD). 2 μg of total protein per assay. Each point represents an average of four independent measurements (n = 4). Ligands were added at a concentration of 2 μM to ensure saturation of the receptor, and G protein was added as described in “Methods”. The dotted line indicates the rates of activation of G protein in the absence of a ligand. The rates of activation with […] are set to 100%, and rates of activation in the presence of SR-144,528 to 0%.
Figure 4 GEF on CB2 expressed in different cell lines. An amount of 2 μg of membrane protein per assay was used. Each data points represents an average of four independent measurements (n = 4) with error rates indicated by the bars. 100% represents full activation in the presence of 2 μM of CP-55,940, and 0%–with 2 μM SR-144,528.
The subunits of G protein were expressed and purified as described previously. The nucleotide exchange assay was performed as previously described.

T1 sequence (P34972 whole entry): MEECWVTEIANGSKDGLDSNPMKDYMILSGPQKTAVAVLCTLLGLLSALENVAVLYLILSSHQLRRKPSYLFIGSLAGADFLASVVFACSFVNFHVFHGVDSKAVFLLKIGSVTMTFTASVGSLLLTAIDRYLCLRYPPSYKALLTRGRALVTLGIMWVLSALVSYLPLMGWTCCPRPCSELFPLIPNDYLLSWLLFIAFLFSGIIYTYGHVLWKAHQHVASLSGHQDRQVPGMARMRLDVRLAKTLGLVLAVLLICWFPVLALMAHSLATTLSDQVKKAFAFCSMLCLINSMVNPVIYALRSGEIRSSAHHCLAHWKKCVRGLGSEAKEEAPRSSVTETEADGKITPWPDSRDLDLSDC
cannabinoid receptor CB2, sequence (P34972 whole entry): as above

CC(=O)OCCn1c(=NC(=O)C2C(C)(C)C2(C)C)sc2cc(Cl)ccc21 [MRI-2646, 2-(6-Chloro-2-((2,2,3,3-tetramethylcyclopropane-1-carbonyl)imino)benzo[d]thiazol-3(2H)-yl)ethyl acetate]
Ki (hCB2 [1]): 0.079 ± 0.011 nM
Emax (hCB2 [2]; CHO membranes expressing hCB2 (PerkinElmer ES111-M400UA), read-out: GTPγS binding Emax): -2 ± 4%
Functional effect on G-protein signaling (pharmacological category) (hCB2 [2]; hCB2-expressing CHO cell membranes (PerkinElmer)): no effect on basal signaling
Pharmacological category in GEF assay (cannabinoid receptor CB2; CB2 in CHO membranes (EMD Millipore), ligand 2 μM): partial inverse agonist
Pharmacological category in GEF assay (cannabinoid receptor CB2; CB2 in CHO membranes (PerkinElmer)): neutral antagonist
Pharmacological category in GEF assay (cannabinoid receptor CB2; CB2 in CHO-K1 membranes (Applied Cell Sciences)): partial inverse agonist
Pharmacological category in GEF assay (cannabinoid receptor CB2; CB2 in E. coli BL21 (DE3) membranes (untreated), ligand 2 μM): partial agonist; also recorded: agonistic effects; also recorded: weaker agonist
Pharmacological category in GEF assay (cannabinoid receptor CB2; CB2 in Expi293F GNTI- membranes): partial inverse agonist
Pharmacological category in GEF assay (cannabinoid receptor CB2; CB2 in Expi293F membranes): partial inverse agonist
Pharmacological category in GEF assay (cannabinoid receptor CB2; CB2 in baculovirus infected insect Sf9 cell membranes): partial agonist
Pharmacological category in GEF assay (cannabinoid receptor CB2; CHO membranes (PerkinElmer), with and without exogenous G protein): neutral antagonist
Pharmacological category in GEF assay (cannabinoid receptor CB2; E. coli membranes treated with 20 mM MβCD/cholesterol): neutral antagonist
Pharmacological category in GEF assay (cannabinoid receptor CB2; Expi293F membranes treated with 20 mM MβCD (cholesterol depleted)): partial agonist
Pharmacological category in GEF assay (cannabinoid receptor CB2; Expi293F membranes, with and without exogenous G protein): inverse agonist
Pharmacological category in GEF assay (cannabinoid receptor CB2; Sf9 membranes, with and without exogenous G protein): partial agonist
Pharmacological category on CB2 (cannabinoid receptor CB2; bacterial- and insect-cell membranes): partial agonist
Pharmacological category on CB2 (cannabinoid receptor CB2; cholesterol-containing membranes): neutral antagonist or a partial inverse agonist; also recorded: either as an inverse agonist or a neutral antagonist
Pharmacological category on CB2 (cannabinoid receptor CB2; mammalian cell membranes): inverse agonist or neutral antagonist
Pharmacological category on CB2 (cannabinoid receptor CB2; membranes devoid of cholesterol): partial agonist
